In PubChem BioAssay AID256 (DTP/NCI, 2004):
Values joined by “and” are separate entries in the source; they are usually repeats but may differ in a detail not shown here. Equal values may be shown once. Inconclusive results and toxic doses are left out. The calls were made as follows: active = survival T/C of 150% or more; inactive = T/C below 125% in these data.

Test system: CD2F1 mice, L1210 leukemia ip, survival T/C
Assay: NCI In Vivo Anticancer Drug Screen. Data for tumor model L1210 Leukemia (intraperitoneal) in CD2F1 (CDF1) mice
Conditions: endpoint: mean survival time, higher = longer survival
Procedure, shortened: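 Tumor-bearing mice (transplanted tumor) were split into treated and vehicle control groups, and the measured endpoint of each treated group was divided by that of its vehicle controls.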

[1] = dose: 12.5 mg/kg/injection, schedule: Q01DX005 (ip), vehicle: water
[2] = dose: 25.0 mg/kg/injection, schedule: Q01DX005 (ip), vehicle: water
[3] = dose: 50.0 mg/kg/injection, schedule: Q01DX005 (ip), vehicle: water
[4] = dose: 100.0 mg/kg/injection, schedule: Q01DX001 (ip), vehicle: saline with Tween-80
[5] = dose: 100.0 mg/kg/injection, schedule: Q01DX005 (ip), vehicle: water
[6] = dose: 200.0 mg/kg/injection, schedule: Q01DX001 (ip), vehicle: saline with Tween-80
[7] = dose: 400.0 mg/kg/injection, schedule: Q01DX001 (ip), vehicle: saline with Tween-80
[8] = dose: 25.0 mg/kg/injection, schedule: Q01DX009 (ip), vehicle: Klucel (hydroxypropylcellulose) (HPC)
[9] = dose: 100.0 mg/kg/injection, schedule: Q01DX009 (ip), vehicle: Klucel (hydroxypropylcellulose) (HPC)
[10] = dose: 100.0 mg/kg/injection, schedule: Q04DX003 (ip), vehicle: saline with Tween-80
[11] = dose: 200.0 mg/kg/injection, schedule: Q01DX009 (ip), vehicle: Klucel (hydroxypropylcellulose) (HPC)
[12] = dose: 200.0 mg/kg/injection, schedule: Q04DX003 (ip), vehicle: saline with Tween-80
[13] = dose: 400.0 mg/kg/injection, schedule: Q04DX003 (ip), vehicle: saline with Tween-80
[14] = dose: 100.0 mg/kg/injection, schedule: Q04DX003 (ip), vehicle: saline
[15] = dose: 200.0 mg/kg/injection, schedule: Q04DX003 (ip), vehicle: saline
[16] = dose: 400.0 mg/kg/injection, schedule: Q04DX003 (ip), vehicle: saline
[17] = dose: 50.0 mg/kg/injection, schedule: Q01DX009 (ip), vehicle: saline with Tween-80
[18] = dose: 100.0 mg/kg/injection, schedule: Q01DX009 (ip), vehicle: saline with Tween-80
[19] = dose: 200.0 mg/kg/injection, schedule: Q01DX009 (ip), vehicle: saline with Tween-80
[20] = dose: 12.5 mg/kg/injection, schedule: Q01DX005 (ip), vehicle: distilled water + Tween-80
[21] = dose: 25.0 mg/kg/injection, schedule: Q01DX005 (ip), vehicle: distilled water + Tween-80
[22] = dose: 50.0 mg/kg/injection, schedule: Q01DX005 (ip), vehicle: distilled water + Tween-80
[23] = dose: 100.0 mg/kg/injection, schedule: Q01DX005 (ip), vehicle: distilled water + Tween-80
[24] = dose: 400.0 mg/kg/injection, schedule: Q01DX009 (ip), vehicle: saline with Tween-80

Measured: T/C

Nc1cc(=S)c2ncn(C3OC(CO)C(O)C3O)c2[nH]1 (configuration not stated)
inactive: dose: 6.25 mg/kg/injection, schedule: Q01DX005 (ip), vehicle: water 89 % of control | [1] 101 % of control | [2] 89 % of control | [3] 96 % of control | [4] 100 % of control | [5] 93 % of control | [6] 91 % of control | [7] 100 % of control

O=C1CC23CCCN2CCc2cc4c(cc2C3=C1O)OCO4 (configuration not stated)
inactive: dose: 1.56 mg/kg/injection, schedule: Q01DX009 (ip), vehicle: Klucel (hydroxypropylcellulose) (HPC) 102 % of control | dose: 3.13 mg/kg/injection, schedule: Q01DX009 (ip), vehicle: Klucel (hydroxypropylcellulose) (HPC) 101 % of control | dose: 6.25 mg/kg/injection, schedule: Q01DX009 (ip), vehicle: Klucel (hydroxypropylcellulose) (HPC) 104 % of control | dose: 12.5 mg/kg/injection, schedule: Q01DX009 (ip), vehicle: Klucel (hydroxypropylcellulose) (HPC) 102 % of control | [8] 95 % of control

c1ccc(CNc2nnnn2C2CCCCC2)cc1
inactive: dose: 25.0 mg/kg/injection, schedule: Q04DX002 (ip), vehicle: saline with Tween-80 95 % of control | dose: 50.0 mg/kg/injection, schedule: Q04DX002 (ip), vehicle: saline with Tween-80 91 % of control | dose: 100.0 mg/kg/injection, schedule: Q04DX002 (ip), vehicle: saline with Tween-80 102 % of control

COc1ccc(C(=O)CC(=O)Nc2ccc([N+](=O)[O-])cc2)cc1
inactive: [9] 98 % of control | [10] 107 % of control | [11] 97 % of control | [12] 102 % of control | dose: 400.0 mg/kg/injection, schedule: Q01DX009 (ip), vehicle: Klucel (hydroxypropylcellulose) (HPC) 97 % of control | [13] 101 % of control

CC1CCCC/C1=N/O (configuration not stated)
inactive: [14] 101 % of control | [15] 101 % of control | [16] 101 % of control

CCCCCC(/C=C/C1C=CC(=O)C1C/C=C/CCCC(=O)OC)OC(C)=O (configuration not stated)
inactive: [10] 95 % of control | [12] 100 % of control | [13] 95 % of control

CCCC(O)(CC)C1CCCC1C (configuration not stated)
inactive: [17] 100 % of control | [18] 95 % of control | [19] 100 % of control

Nc1nc(=Nc2ccccc2)n(C2OCC(O)C(O)C2O)c2ccccc12 (configuration not stated)
inactive: [20] 94 % of control | [21] 94 % of control | [22] 93 % of control | [23] 90 % of control | dose: 200.0 mg/kg/injection, schedule: Q01DX005 (ip), vehicle: distilled water + Tween-80 86 % of control

COc1cc2cc3c4ccc(OC)c(OC)c4cc[n+]3c(C)c2cc1OC (tested in a mixture with another compound)
inactive: dose: 6.25 mg/kg/injection, schedule: Q01DX009 (ip), vehicle: other 108 % of control | dose: 12.5 mg/kg/injection, schedule: Q01DX009 (ip), vehicle: other 106 % of control | dose: 25.0 mg/kg/injection, schedule: Q01DX009 (ip), vehicle: other 116 % of control | dose: 50.0 mg/kg/injection, schedule: Q01DX009 (ip), vehicle: other 97 % of control

C=CCNC(=S)NCCCCCCCCCCCCCCCCCC
inactive: dose: 12.5 mg/kg/injection, schedule: Q01DX009 (ip), vehicle: saline with Tween-80 98 % of control | dose: 25.0 mg/kg/injection, schedule: Q01DX009 (ip), vehicle: saline with Tween-80 98 % of control | [17] 104 % of control

CCOC(=O)C(Cl)C(=O)OCC
inactive: [4] 108 % of control and 109 % of control | [6] 104 % of control and 105 % of control | [7] 120 % of control and 111 % of control

CCCC(=O)NN=C(C)C
inactive: dose: 12.5 mg/kg/injection, schedule: Q04DX003 (ip), vehicle: saline 105 % of control | dose: 25.0 mg/kg/injection, schedule: Q04DX003 (ip), vehicle: saline 104 % of control | dose: 50.0 mg/kg/injection, schedule: Q04DX003 (ip), vehicle: saline 107 % of control

O=C(NCCc1nc(-c2nc(C(=O)O)cs2)cs1)c1ccccc1
inactive: [18] 96 % of control | [19] 96 % of control | [24] 96 % of control

CC(C)c1cc(C(C)C)nc(NNc2nc(C(C)C)cc(C(C)C)n2)n1
inactive: [10] 102 % of control | [12] 100 % of control | [13] 100 % of control

CCCCCCCC(=O)Nc1ncnc2c1ncn2C1OC(COC(C)=O)C(OC(C)=O)C1OC(C)=O (configuration not stated)
inactive: [20] 98 % of control | [21] 91 % of control | [22] 98 % of control | [23] 94 % of control

COCCN1CCC(C)(CO)C1 (configuration not stated)
inactive: dose: 100.0 mg/kg/injection, schedule: Q01DX009 (ip), vehicle: saline 94 % of control | dose: 200.0 mg/kg/injection, schedule: Q01DX009 (ip), vehicle: saline 94 % of control | dose: 400.0 mg/kg/injection, schedule: Q01DX009 (ip), vehicle: saline 100 % of control

Cc1ccc(C(=O)/C=C/c2ccccc2)cc1
inactive: [8] 86 % of control | dose: 50.0 mg/kg/injection, schedule: Q01DX009 (ip), vehicle: Klucel (hydroxypropylcellulose) (HPC) 88 % of control | [4] 108 % of control | [9] 86 % of control | [6] 100 % of control | [11] 86 % of control | [7] 100 % of control

Cc1cc(SCSc2cc(C)[o+]c(C)c2)cc(C)[o+]1
inactive: dose: 100.0 mg/kg/injection, schedule: Q04DX003 (ip), vehicle: Klucel (hydroxypropylcellulose) (HPC) 100 % of control | dose: 200.0 mg/kg/injection, schedule: Q04DX003 (ip), vehicle: Klucel (hydroxypropylcellulose) (HPC) 104 % of control | dose: 400.0 mg/kg/injection, schedule: Q04DX003 (ip), vehicle: Klucel (hydroxypropylcellulose) (HPC) 102 % of control

CCCCCCCCCCCCCCCCCCCCCC(=O)OC
inactive: [18] 102 % of control | [10] 89 % of control | [19] 103 % of control | [12] 90 % of control | [24] 100 % of control | [13] 87 % of control

C=C1C(=O)OC2CC(C)C3C(O)C(O)C(O)C3(C)CC12 (configuration not stated)
inactive: [10] 102 % of control | [12] 104 % of control

OCC1OC(n2ccn(C3OC(CO)C(O)C3O)c2=S)C(O)C1O (configuration not stated)
inactive: [1] 98 % of control | [2] 106 % of control | [3] 96 % of control | [5] 98 % of control | dose: 200.0 mg/kg/injection, schedule: Q01DX005 (ip), vehicle: water 102 % of control

CC(=O)Nc1ccccc1-c1ccccc1
inactive: [18] 96 % of control | [10] 92 % of control | [19] 104 % of control | [12] 95 % of control | [24] 103 % of control | [13] 94 % of control

CCOC(Cc1cccc2ccccc12)(c1ccccc1)c1ccccc1
inactive: [10] 101 % of control | [12] 98 % of control | [13] 101 % of control

COC(=O)C(CSC(c1ccccc1)(c1ccccc1)c1ccccc1)NC(=O)CCNC(=O)OCc1ccccc1 (configuration not stated)
inactive: dose: 12.5 mg/kg/injection, schedule: Q01DX009 (ip), vehicle: water 93 % of control | dose: 25.0 mg/kg/injection, schedule: Q01DX009 (ip), vehicle: water 91 % of control | dose: 50.0 mg/kg/injection, schedule: Q01DX009 (ip), vehicle: water 90 % of control | dose: 100.0 mg/kg/injection, schedule: Q01DX009 (ip), vehicle: water 90 % of control

O=C(Nc1ccc(F)cc1)c1cccc(Cl)c1
inactive: [18] 98 % of control | [10] 94 % of control | [19] 90 % of control | [12] 94 % of control | [24] 96 % of control | [13] 95 % of control

c1ccc2nc3c(cc2c1)CCC3
inactive: dose: 100.0 mg/kg/injection, schedule: Q04DX003 (ip), vehicle: saline + alcohol 95 % of control | dose: 200.0 mg/kg/injection, schedule: Q04DX003 (ip), vehicle: saline + alcohol 95 % of control

CC(=O)Nc1nnn(C)n1
inactive: [14] 103 % of control | [15] 100 % of control | [16] 101 % of control

Cc1csc2nccc(Cl)c12
inactive: [4] 100 % of control | [6] 112 % of control | [7] 97 % of control
